From PMC9285882, “A mass spectrometry‐based non‐radioactive differential radial capillary action of ligand assay (DRaCALA) to assess ligand binding to proteins” (Journal of Mass Spectrometry, 2022)

What was measured:
Assay type in all cases: biochemical
YciRFec101 = molecular target: T1, YciRFec101 (Escherichia coli, UniProt P77334); test: DRaCALA, MALDI-TOF MS and […] read-out; details: cell lysate; 10 mM Tris pH 8.0, 100 mM NaCl, 5 mM MgCl2 (MALDI) or MgSO4 (32P); room temperature; labelled compound in 32P assay
T1 construct: gene pdeR; full-length GGDEF/EAL protein, cloned in pBAD30, expressed in E. coli Top10, whole cell lysate

BcsE = BcsE (Escherichia coli, UniProt P37657); test: DRaCALA, MALDI-TOF MS read-out; details: cell lysate; 10 mM Tris pH 8.0, 100 mM NaCl, 5 mM MgCl2; room temperature
YcgR = molecular target: T2, YcgR (Escherichia coli, UniProt P76010); test: DRaCALA, MALDI-TOF MS read-out; details: cell lysate; 10 mM Tris pH 8.0, 100 mM NaCl, 5 mM MgCl2; room temperature
T2 construct: cloned in pBAD30, expressed in E. coli Top10, whole cell lysate
T2 sequence (P76010 1-244): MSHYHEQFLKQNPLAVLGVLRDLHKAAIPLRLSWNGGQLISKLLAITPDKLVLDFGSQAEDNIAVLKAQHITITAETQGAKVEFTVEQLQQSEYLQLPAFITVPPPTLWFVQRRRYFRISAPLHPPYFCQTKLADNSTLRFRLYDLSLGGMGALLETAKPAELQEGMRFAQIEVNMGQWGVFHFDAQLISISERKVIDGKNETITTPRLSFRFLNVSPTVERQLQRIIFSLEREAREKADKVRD

Sequence of BcsE (P37657 whole entry): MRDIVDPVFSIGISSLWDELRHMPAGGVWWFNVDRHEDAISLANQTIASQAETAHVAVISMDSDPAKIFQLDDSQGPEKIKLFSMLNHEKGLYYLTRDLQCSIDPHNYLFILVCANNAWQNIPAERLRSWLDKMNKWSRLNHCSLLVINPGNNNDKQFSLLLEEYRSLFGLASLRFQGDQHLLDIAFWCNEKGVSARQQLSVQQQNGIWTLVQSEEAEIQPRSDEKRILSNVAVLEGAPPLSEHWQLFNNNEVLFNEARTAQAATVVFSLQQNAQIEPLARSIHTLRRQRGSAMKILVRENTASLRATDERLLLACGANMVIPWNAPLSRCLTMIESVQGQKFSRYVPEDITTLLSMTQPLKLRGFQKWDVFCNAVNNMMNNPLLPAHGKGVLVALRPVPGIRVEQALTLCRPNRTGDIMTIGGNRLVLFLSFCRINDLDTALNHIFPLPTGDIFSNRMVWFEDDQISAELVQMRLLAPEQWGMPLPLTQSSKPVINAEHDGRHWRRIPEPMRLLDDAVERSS
T1 sequence (P77334 whole entry): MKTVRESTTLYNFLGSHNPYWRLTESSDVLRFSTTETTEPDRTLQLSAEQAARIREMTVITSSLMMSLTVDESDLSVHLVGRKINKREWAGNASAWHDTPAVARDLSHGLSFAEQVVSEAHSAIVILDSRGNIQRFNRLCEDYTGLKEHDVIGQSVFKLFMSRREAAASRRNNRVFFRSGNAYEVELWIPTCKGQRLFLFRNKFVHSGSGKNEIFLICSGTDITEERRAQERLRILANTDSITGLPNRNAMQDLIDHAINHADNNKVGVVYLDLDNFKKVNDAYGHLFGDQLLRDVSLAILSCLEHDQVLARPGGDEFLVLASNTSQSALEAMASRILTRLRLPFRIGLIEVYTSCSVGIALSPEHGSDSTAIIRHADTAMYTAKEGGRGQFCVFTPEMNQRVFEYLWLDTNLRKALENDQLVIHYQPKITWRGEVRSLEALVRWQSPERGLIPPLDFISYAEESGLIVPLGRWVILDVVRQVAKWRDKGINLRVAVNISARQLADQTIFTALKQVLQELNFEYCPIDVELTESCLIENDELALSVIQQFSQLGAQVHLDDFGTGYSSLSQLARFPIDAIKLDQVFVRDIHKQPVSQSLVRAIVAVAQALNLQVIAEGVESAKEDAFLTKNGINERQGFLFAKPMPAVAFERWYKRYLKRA

With `Nc1nc2c(ncn2[C@@H]2O[C@@H]3COP(=O)(O)O[C@H]4[C@@H](O)[C@H](n5cnc6c(=O)[nH]c(N)nc65)O[C@@H]4COP(=O)(O)O[C@H]3[C@H]2O)c(=O)[nH]1` [cyclic di-GMP] the “DRaCALA, MALDI-TOF MS and 32P read-out” value (YciRFec101) was “YciRFec101 showed increased binding to c‐di‐GMP, while mut1 and mut2 were near vector control”, the “DRaCALA, MALDI-TOF MS read-out” value (BcsE) was “cell lysates expressing the cyclic di‐GMP receptors and incubated with cyclic di‐GMP showed higher counts” and the “DRaCALA, MALDI-TOF MS read-out” value (YcgR) was “cell lysates expressing the cyclic di‐GMP receptors and incubated with cyclic di‐GMP showed higher counts”.
